Measured values reported in patent US4762701A, “In vivo cellular tracking” (SmithKline Beckman Corporation, priority 1986, dated 1988).
Peptide text beside a SMILES is read from it.

What was measured:
Yac cells = assay: Doubling time of Yac cells after thirty minutes exposure to osmolarity regulating agents; type: cell-based, mouse; settings: for Doubling Time: after thirty minutes exposure, PBS is the comparator; for effects on cell doubling time: compared to phosphate buffered saline
Experimental: The effect on cell viability of exposure to a variety of osmolarity regulating agents was determined by measuring the doubling time of Yac cells after the cells were exposed for thirty minutes to a variety of osmolarity regulating agents. Yac cells are a mouse lymphoma tissue culture cell line available from the American Type Culture Collection, Rockville, Maryland, and are described in the European Journal of Immunology 5:112-117 (1975).

[1] = Cyanine dye solubility in osmolarity regulating agents (relative fluorescence intensity, ethanol standard); type: physicochemical
Experimental: (§1) Included within compounds referred to herein as cyanine dyes are compounds of the above structure having one or more substitutions provided such substituted compounds are soluble in cell labelling media for at least as long as needed for labelling and have a sufficiently high membrane partition coefficient to remain associated with labelled cell membranes. […] Solubility in cell labelling media is determined as shown below by dispursing a cyanine dye in the labelling media and, by standard spectrafluorometric techniques, measuring fluorescence intensity over time. Decreasing fluorescence intensity indicates dye precipitation and adherence to vessel walls. Whether the dyes remain associated with cell membranes is determined, for example, using known flow cytometric procedures to monitor fluorescence intensity of red blood cells injected into the donor animal after labelling. Essentially constant fluorescence intensity of the labelled cells after injection establishes stability of the dye in cell membranes.
All measurements of concentration were made after removal of precipitates by centrifugation and dissolving small aliquots of osmolarity regulating agents containing cyanine dyes into ethanol for spectrofluorometric analysis. The dyes used were DiSC14 (5) and DiOC14 (3), and the osmolarity regulating agents were at iso-osmotic concentrations. Reductions in fluorescence intensity from the ethanol solution standard directly correlate with reductions in cyanine dye solubility.

V79 cells = assay: Growth kinetics of stained V79 cells; type: cell-based; settings: 10^-5 or 4×10^-5 M dye, versus unstained cells
Experimental: Cells cyanine dye labelled using the presently invented procedure were analyzed to determine the effect of labelling on cell viability. V79 cells which are available from the American Type Culture Collection, Rockville, Maryland, and are described in Prescott, D. M., Ann. New York Acad. Sci., 397:101-109 (1982), were labelled with a solution containing DiOC14 (3) at a concentration of 10^-5 or 4×10^-5 M and the growth kinetics of the stained cells were compared to unstained cells and an equal mixture of stained and unstained cells. […] Thus, labelling had no effect on cell growth.

[2] = Stability of DiSC14 (5) solutions in osmolarity regulating agents; type: physicochemical
Experimental: as §1
Additionally, stability of DiSC14 (5) solutions in sugars such as glucose, fructose, ribose, sorbose, sucrose, and xylose, sugar-alcohols such as glycerol, inositol, xylitol, and adonitol, and amino acids such as glycine and arginine was determined.

[3] = Solubility of DiSC14 (5) in iso-osmotic glucose diluted with water or sodium chloride solution; type: physicochemical
Experimental: Further, the solubility of cyanine dyes in a medium containing classical salts and osmolarity regulators in which the dyes are soluble was evaluated. […] Thus, reproducible cell labelling with cyanine dyes can be performed in media containing no more than small amounts of classical salts, such as sodium chloride, potassium chloride, calcium chloride, sodium acetate, potassium acetate, sodium sulfate, sodium iodide, choline chloride, or choline iodide, and preferably is performed in a medium in which no classical salts are used to regulate osmolarity.

rabbit red cells = assay: In vivo stability of labelled rabbit red cells after reinfusion
Text: To test in vivo stability of cells cyanine dye labelled according to the presently invented method, rabbit red cells were withdrawn, labelled with DiSC14 (5), and reinfused. Periodically thereafter, blood samples were obtained and analyzed for percent labelled cells and fluorescence intensity of the labelled cells.
In the fifth animal, not more than 20% of the cyanine dye had migrated from the labelled cells after 60 days in the rabbits' circulation.

[4] = in Phosphate Buffered Saline, ethanol = 100
[5] = in iso-osmotic Arginine, ethanol = 100
[6] = in iso-osmotic Choline Chloride, ethanol = 100, ** (DiSC14 (5) value) Artifact due to large crystals that did not pellet
[7] = in iso-osmotic Choline Iodide, ethanol = 100
[8] = in iso-osmotic Fructose, ethanol = 100
[9] = in iso-osmotic Glucose, ethanol = 100
[10] = in iso-osmotic Glycerol, ethanol = 100
[11] = in iso-osmotic Glycine, ethanol = 100
[12] = in iso-osmotic Inositol, ethanol = 100
[13] = in iso-osmotic Lyxose, ethanol = 100
[14] = in iso-osmotic Na2 SO4, ethanol = 100
[15] = in iso-osmotic NaCl, ethanol = 100
[16] = in iso-osmotic NaI, ethanol = 100
[17] = in iso-osmotic Ribose, ethanol = 100
[18] = in iso-osmotic Sorbose, ethanol = 100
[19] = in iso-osmotic Sucrose, ethanol = 100
[20] = in iso-osmotic Xylitol, ethanol = 100
[21] = in iso-osmotic Xylose, ethanol = 100
[22] = rabbit, reinfused labelled red cells

Compound: NCCCS(=O)(=O)O [3-Amino-1-propanesulfonic acid]
- Doubling Time (Yac cells): 99.6 h

Compound: NC(=O)CNCCS(=O)(=O)O [ACES, 2-[(2-Amino-2-oxoethyl)amino]ethane sulfonic acid]
- Doubling Time (Yac cells): 1038.4 h

Compound: O=C(O)CN(CCO)CCO [BICINE, N,N--bis(2-hydroxyethyl)glycine]
- Doubling Time (Yac cells): 57.7 h

Compound: O=S(=O)(O)CCCNC1CCCCC1 [CAPS, 3-(Cyclohexylamino)-1-propanesulfonic acid]
- Doubling Time (Yac cells): 45.8 h
- effects on cell doubling time (Yac cells): negligible effects on cell doubling time

Compound: O=S(=O)(O)CCNC1CCCCC1 [CHES, 2-(N--cyclohexylamino)ethane sulfonic acid]
- Doubling Time (Yac cells): 51.5 h

Compound: O=S(=O)(O)CC(O)CN(CCO)CCO (centres unmarked) [DIPSO, 3-[N--N--bis(2-hydroxyethyl)amino]-2-hydroxypropane-sulfonic acid]
- Doubling Time (Yac cells): 36.7 h
- effects on cell doubling time (Yac cells): negligible effects on cell doubling time

Compound: CCCCCCCCCCCCCCN1C(=CC=Cc2oc3ccccc3[n+]2CCCCCCCCCCCCCC)Oc2ccccc21 [DiOC14 (3)]
- Relative Fluorescence Intensity (CONC) ([1]; in Ethanol (standard)): 100
- Relative Fluorescence Intensity (CONC) [1, 4]: 6.5
- Relative Fluorescence Intensity (CONC) [1, 5]: 17.2
- Relative Fluorescence Intensity (CONC) [1, 6]: 6.3
- Relative Fluorescence Intensity (CONC) [1, 7]: 2.3
- Relative Fluorescence Intensity (CONC) [1, 8]: 100
- Relative Fluorescence Intensity (CONC) [1, 9]: 100
- Relative Fluorescence Intensity (CONC) [1, 10]: 99.5
- Relative Fluorescence Intensity (CONC) [1, 11]: 93
- Relative Fluorescence Intensity (CONC) [1, 12]: 92
- Relative Fluorescence Intensity (CONC) [1, 13]: 1.8
- Relative Fluorescence Intensity (CONC) [1, 14]: 1.6
- Relative Fluorescence Intensity (CONC) [1, 15]: 1.7
- Relative Fluorescence Intensity (CONC) [1, 16]: 0.14
- Relative Fluorescence Intensity (CONC) [1, 17]: 100
- Relative Fluorescence Intensity (CONC) [1, 18]: 100
- Relative Fluorescence Intensity (CONC) [1, 19]: 100
- Relative Fluorescence Intensity (CONC) [1, 20]: 76.4
- Relative Fluorescence Intensity (CONC) [1, 21]: 19-52
- Cell doubling time of labelled cells (V79 cells): Cell doubling time was unaffected by cyanine dye labelling

Compound: CCCCCCCCCCCCCCN1C(=CC=CC=Cc2sc3ccccc3[n+]2CCCCCCCCCCCCCC)Sc2ccccc21 [DiSC14 (5)]
- time for which dye was stable in solution ([2]; in glucose, fructose, ribose, sorbose, sucrose, xylose, glycerol, inositol, xylitol, adonitol, glycine, arginine): at least twenty
- amount of cyanine dye in solution at sixty minutes ([2]; in many of the agents, sixty minutes): had not significantly decreased at sixty minutes
- Relative Fluorescence Intensity (CONC) ([1]; in Ethanol (standard)): 100
- Relative Fluorescence Intensity (CONC) [1, 4]: 2.1
- Relative Fluorescence Intensity (CONC) ([1]; in iso-osmotic Adonitol, ethanol = 100): 34
- Relative Fluorescence Intensity (CONC) [1, 5]: 17
- Relative Fluorescence Intensity (CONC) ([1]; in iso-osmotic CAPS, ethanol = 100): 40
- Relative Fluorescence Intensity (CONC) [1, 6]: 11
- Relative Fluorescence Intensity (CONC) [1, 7]: 0.16
- Relative Fluorescence Intensity (CONC) ([1]; in iso-osmotic DIPSO, ethanol = 100, *** Precipitate in ethanol (data questionable)): 43
- Relative Fluorescence Intensity (CONC) ([1]; in iso-osmotic EPPS, ethanol = 100): 18
- Relative Fluorescence Intensity (CONC) [1, 8]: 35
- Relative Fluorescence Intensity (CONC) [1, 9]: 31
- Relative Fluorescence Intensity (CONC) [1, 10]: 39
- Relative Fluorescence Intensity (CONC) [1, 11]: 31
- Relative Fluorescence Intensity (CONC) ([1]; in iso-osmotic HEPPSO, ethanol = 100): 20
- Relative Fluorescence Intensity (CONC) [1, 12]: 42
- Relative Fluorescence Intensity (CONC) [1, 13]: 0.12
- Relative Fluorescence Intensity (CONC) ([1]; in iso-osmotic Mannitol, ethanol = 100): 29
- Relative Fluorescence Intensity (CONC) [1, 14]: 7.4
- Relative Fluorescence Intensity (CONC) [1, 15]: 6
- Relative Fluorescence Intensity (CONC) [1, 16]: 1.1
- Relative Fluorescence Intensity (CONC) [1, 17]: 24
- Relative Fluorescence Intensity (CONC) [1, 18]: 40
- Relative Fluorescence Intensity (CONC) [1, 19]: 41
- Relative Fluorescence Intensity (CONC) ([1]; in iso-osmotic TAPS, ethanol = 100): 18
- Relative Fluorescence Intensity (CONC) [1, 20]: 34
- Relative Fluorescence Intensity (CONC) [1, 21]: 36
- solubility in iso-osmotic glucose solution on dilution with distilled water ([3]; diluted with distilled water): not significantly affected by dilution with distilled water
- solubility in iso-osmotic glucose solution on dilution with sodium chloride solution ([3]; dilution with only approximately 20% iso-osmotic sodium chloride solution): reduced significantly
- fluorescence intensity of the stained cells (rabbit red cells; 60 days after labelling and reinjection, all but one of five rabbits): remained essentially unchanged 60 days after labelling and reinjection
- cyanine dye migrated from the labelled cells (rabbit red cells; fifth rabbit, after 60 days in circulation): not more than 20%
- clearance rate of red blood cells (rabbit red cells; rabbit, labelled red cells): did not affect the clearance rate of red blood cells
- lifetime of labelled red cells (rabbit red cells; [22]): 52 days
- number of circulating labelled red cells over time (rabbit red cells; [22]): decreased linearly as a function of time

Compound: O=S(=O)(O)CCCN1CCN(CCO)CC1 [EPPS, N--(2-Hydroxyethyl)piperazine-N'--3-propanesulfonic acid]
- Doubling Time (Yac cells): 32.2 h
- effects on cell doubling time (Yac cells): negligible effects on cell doubling time

Compound: N[C@H]1C(O)O[C@H](CO)[C@@H](O)[C@@H]1O (some centres unmarked) [Glucosamine]
- Doubling Time (Yac cells): 288.4 h

Compound: O=C[C@H](O)[C@@H](O)[C@H](O)[C@H](O)CO [Glucose]
- Doubling Time (Yac cells): 34.5 h
- effects on cell doubling time (Yac cells): negligible effects on cell doubling time

Compound: NCC(=O)NCC(=O)O [Glycylglycine] (H-Gly-Gly-OH)
- Doubling Time (Yac cells): 66.9 h

Compound: O=S(=O)(O)CC(O)CN1CCN(CCO)CC1 (centres unmarked) [HEPPSO, N--2-hydroxyethylpiperazine-N'--2-hydroxypropane-sulfonic acid]
- Doubling Time (Yac cells): 23.4 h
- effects on cell doubling time (Yac cells): negligible effects on cell doubling time

Compound: O=S(=O)(O)CC(O)CN1CCOCC1 (centres unmarked) [MOPSO, 3-(N--morpholino)-2-hydroxypropane-sulfonic acid]
- Doubling Time (Yac cells): 178.4 h

Compound: OC[C@H]1O[C@@](CO)(O[C@H]2O[C@H](CO)[C@@H](O)[C@H](O)[C@H]2O)[C@@H](O)[C@@H]1O [Sucrose]
- Doubling Time (Yac cells): 41.0 h
- effects on cell doubling time (Yac cells): negligible effects on cell doubling time

Compound: O=S(=O)(O)CCCNC(CO)(CO)CO [TAPS, Tris(hydroxymethyl)-methylaminopropane sulfonic acid]
- Doubling Time (Yac cells): 32.7 h
- effects on cell doubling time (Yac cells): negligible effects on cell doubling time

Compound: O=S(=O)(O)CC(O)CNC(CO)(CO)CO (centres unmarked) [TAPSO, 3-[N--tris(hydroxymethyl)methylamino]-2-hydroxypropanesulfonic acid]
- Doubling Time (Yac cells): 63.6 h
